Assay [1] deals with cartilage explant cultures. To be noted: pH 5.5, explant cultures; cited from earlier work.
Assay [2] deals with cathepsin D isolated from the human liver (Homo sapiens (Human), UniProt P07339). Description: In-vitro fluorescence assay for identification of cathepsin D inhibitors. It is filed as biochemical. Particulars: cathepsin D 1.4 nM, pH 5.5; values in E notation; read-out: Cath D IC50. The procedure:
In order to identify modulators of cathepsin D activity, a continuous enzymatic test was carried out with a synthetic peptide which carries a fluorescent group (MCA=(7-methoxycoumarin-4-yl)acetyl) which is quenched by energy transfer from a Dpn (2,4 dinitrophenyl) group on the same molecule, in Greiner 384-well nb microtitre plates. Cleavage of the peptidic substrate by cathepsin D causes an increase in the fluorescence intensity. In order to determine the efficacy of substances, the time-dependent increase in the fluorescence intensity in the presence of the substance was compared with the time-dependent increase in fluorescence in the absence of substances. The reference substance used was pepstatin A (Sigma-Aldrich). The substrate used was MCA-GKPILFFRLK(Dnp)d-R—NH2 (Enzo Life Sciences, Lor-rach). The enzyme employed was cathepsin D isolated from the human liver (Sigma-Aldrich) in a final concentration of 1.4 nM. The test was carried out in 100 mM sodium acetate buffer, 1.25% (v/v) of DMSO, 0.25% (w/v) of Chaps, pH 5.5. 2 μl of each substance solution with serially diluted substance concentration were added to in each case 4 μl of cathepsin D solution and incubated at room temperature for 10 min. The reaction was started by addition of 2 μl of substrate solution (final concentration 5 μM). After carrying out a starting-point fluorescence measurement (excitation wavelength 340 nm/emission wavelength 450 nm) using an Envision multilabel reader (Perkin Elmer), the reaction was incubated at room temperature for 60 min. The amount of peptide fragment cleaved off during the reaction time was subsequently measured by determination of the increase in the fluorescence intensity at 450 nm (excitation wavelength 340 nm).
The IC50 values of the compounds according to the invention can be obtained from Table 2 from Example 1.

The target of the next assay is recombinant human renin (Homo sapiens (Human), UniProt P00797). Description: In-vitro fluorescence assay for identification of renin-inhibitory activity. Format: biochemical. To be noted: renin 10 nM, pH 7.2. On the procedure: In order to identify modulators of renin activity, a continuous enzymatic test was carried out with a synthetic peptide which carries a fluorescent group Edans (=(5-(aminoethyl)aminonaphthalenesulfonate) which is quenched by energy transfer from a Dabcyl (4′-dimethylaminoazobenzene-4-carboxylate) group on the same molecule, in Greiner 384-well microtitre plates. Cleavage of the peptidic substrate by renin causes an increase in the fluorescence intensity. In order to determine the efficacy of substances, the time-dependent increase in the fluorescence intensity in the presence of the substance was compared with the time-dependent increase in fluorescence in the absence of substances. The reference substance used was renin inhibitor 2 (Z-Arg-Arg-Pro-Phe-His-Sta-Ile-His N-Boc-Lys methyl ester Z) (Sigma-Aldrich). The substrate used was renin FRET substrate I (DABCYL-g-Abu-Ile-His-Pro-Phe-His-Leu-Val-Ile-His-Thr EDANS) (Anaspec, Fremont Calif.). The enzyme employed was recombinant human renin (Proteos, Kalamazoo, Mich.) in a final concentration of 10 nM. The test was carried out in 50 mM Mops buffer, 1.5% (v/v) of DMSO, 0.1% (w/v) of Igepal®, pH 7.2, 0.5% (w/v) of BSA. 2 μl of each substance solution with serially diluted substance concentration were added to in each case 4 μl of renin solution and incubated at room temperature for 15 min. The reaction was started by addition of 4 μl of substrate solution (final concentration 5 μM). After carrying out a starting-point fluorescence measurement (excitation wavelength 340 nm/emission wavelength 495 nm) using an Envision multilabel reader (Perkin Elmer), the reaction was incubated at 37° C. for 60 min. The amount of peptide fragment cleaved off during the reaction time was subsequently measured by determination of the increase in the fluorescence intensity at 495 nm (excitation wavelength 340 nm).
Chain of recombinant human renin (P00797 67-406): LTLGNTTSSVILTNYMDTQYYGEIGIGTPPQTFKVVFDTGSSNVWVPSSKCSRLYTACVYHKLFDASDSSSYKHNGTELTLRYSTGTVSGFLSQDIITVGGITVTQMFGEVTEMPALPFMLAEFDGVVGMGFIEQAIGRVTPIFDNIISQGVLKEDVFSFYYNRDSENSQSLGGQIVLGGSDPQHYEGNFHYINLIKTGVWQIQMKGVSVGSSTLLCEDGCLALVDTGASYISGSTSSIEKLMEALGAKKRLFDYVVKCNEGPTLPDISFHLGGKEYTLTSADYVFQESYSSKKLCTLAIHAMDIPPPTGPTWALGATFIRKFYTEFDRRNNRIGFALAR

A further assay has as its system rat knee joint. As to the kind of experiment: Anti-hyperalgesic effect in animals (carrageenan-injected rat knee joint, Hargreaves test). Particulars: intra-articular, 30 minutes before CAR. Format: in vivo.

Starred links: 1 amine or outer side, 2 acyl side, 3 side chain; linkers in the order of their positions; H or OH if unused. Non-standard residues stand in square brackets, D forms with d. Residues, ends and D or L forms follow the SMILES beside them. *: point of attachment. Hexanoyl(5S-NH,4S-OH,6-Ph) = O=C(CC[C@H](O)[C@H](Cc1ccccc1)N[*:1])[*:2]; Sta = CC(C)C[C@H](N)[C@@H](O)CC(=O)O; Isovaleryl = CC(C)CC(=O)*; Boc = CC(C)(C)OC(=O)* Where only a bound is given, the exact number is not on record here.

Chain of cathepsin D isolated from the human liver (P07339 65-161): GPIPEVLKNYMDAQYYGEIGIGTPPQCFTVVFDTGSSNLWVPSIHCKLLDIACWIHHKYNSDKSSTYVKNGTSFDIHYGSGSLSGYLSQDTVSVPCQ
Chain of cathepsin D isolated from the human liver (P07339 169-412): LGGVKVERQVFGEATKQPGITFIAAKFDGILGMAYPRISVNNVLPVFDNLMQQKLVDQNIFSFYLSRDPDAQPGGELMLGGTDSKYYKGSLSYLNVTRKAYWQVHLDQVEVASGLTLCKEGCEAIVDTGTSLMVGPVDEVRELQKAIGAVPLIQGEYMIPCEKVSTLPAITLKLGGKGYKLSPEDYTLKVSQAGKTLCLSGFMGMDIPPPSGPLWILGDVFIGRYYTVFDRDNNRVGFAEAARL
Experimental for rat knee joint: In order to induce an inflammation reaction, a carrageenan solution (CAR, 1%, 50 μl) was injected intra-articularly on one side into a rat knee joint. The uninjected side was used for control purposes. Six animals per group were used. The threshold was determined by means of a micrometer screw (medial-lateral on the knee joint), and the thermal hyperalgesia was determined by means of a directed infrared light source by the Hargreaves method (Hargreaves et al., 1988) on the sole of the foot. […] Experimental description of thermal hyperalgesia (Hargreaves test): the experimental animal is placed in a plastic chamber on a quartz sheet. Before testing, the experimental animal is firstly given about 5-15 minutes time to familiarise itself with the environment. As soon as the experimental animal no longer moves so frequently after the familiarisation phase (end of the exploration phase), the infrared light source, whose focus is in the plane of the glass bottom, is positioned directly beneath the rear paw to be stimulated. […] Light reflected by the paw is recorded as long as the experimental animal sits still. Withdrawal of the paw interrupts this reflection, after which the infrared light source is switched off and the time from switching on to switching off is recorded. […]

As for `CC(C)c1nc(CN(C)C(=O)N[C@H](C(=O)N[C@@H](Cc2ccccc2)C[C@H](O)[C@H](Cc2ccccc2)NC(=O)OCc2cncs2)C(C)C)cs1` [ritonavir], the “inhibition of autodigestion of the cartilage” value in assay [1] is on record as “inhibited virtually completely”.
For `CC(C)[C@H](NC(=O)C(c1ccccc1)c1ccccc1)C(=O)N[C@@H](Cc1ccccc1)[C@@H](O)CCC(=O)NCCc1ccccc1` [Compound A13, (4S,5S)-5-((S)-2-Diphenylacetylamino-3-methylbutyrylamino)-4-hydroxy-6-phenylhexanoic acid phenethylamide], the figures for the 50% inhibitory concentration (IC50) (in assay [2]; at recombinant human renin) were 4.3 µM and > 30 µM, respectively.
With `CC(C)CC(=O)N[C@H](C(=O)N[C@H](C(=O)N[C@@H](CC(C)C)[C@@H](O)CC(=O)N[C@@H](C)C(=O)N[C@@H](CC(C)C)[C@@H](O)CC(=O)O)C(C)C)C(C)C` [pepstatin] (Isovaleryl-VV[Sta]A[Sta]-OH), the “inhibition of autodigestion of the cartilage” value in assay [1] is listed as “inhibited virtually completely”.
For the compound `COc1ccc(OC(F)(F)F)cc1CC(=O)N[C@H](C(=O)N[C@@H](Cc1ccccc1)[C@@H](O)CCC(=O)NCCc1ccccc1)C(C)C` [Compound A4, (4S,5S)-4-Hydroxy-5-{(S)-2-[2-(2-methoxy-5-trifluoromethoxyphenyl)-acetylamino]-3-methylbutyrylamino}-6-phenylhexanoic acid phenethyl-amide], the figures for the 50% inhibitory concentration (IC50) (in assay [2]; on recombinant human renin) were 4 µM and > 30 µM, respectively.
Consider `C[C@]12C=CC(=O)C=C1CC[C@H]1[C@@H]3C[C@@H](O)[C@](O)(C(=O)CO)[C@@]3(C)C[C@H](O)[C@@]12F` [TAC, Triamcinolone], for which the “reduction of CAR-induced swelling” value with rat knee joint is given as “capable of reducing the CAR-induced swelling”.
Take `CC[C@H](C)[C@H](NC(=O)CC[C@H](O)[C@H](Cc1ccccc1)NC(=O)[C@@H](NC(=O)[C@H](CC(C)C)NC(=O)OC(C)(C)C)C(C)C)C(=O)N[C@H](C(=O)OC)C(C)C` [Compound A2, (S)-2-((2S,3S)-2-{(4S,5S)-5-[(S)-2-((S)-2-tert-Butoxycarbonylamino-4-methylpentanoylamino)-3-methylbutyrylamino]-4-hydroxy-6-phenyl-hexanoylamino}-3-methylpentanoylamino)-3-methylbutyric acid methyl ester] (Boc-LV[Hexanoyl(5S-NH,4S-OH,6-Ph)]IV-OMe): the IC50 in assay [2] is 0.041 µM; at recombinant human renin (values in E notation), 1.1 µM.

These data come from US10202418B2, “Hydroxy-ethylene derivatives for the treatment of arthrosis” (MERCK PATENT GMBH, priority 2013, dated 2019).
